Data: patent publication US20230227838A1, “ENHANCED CELL SURVIVAL AGAINST BIOTIC AND ABIOTIC STRESSES THROUGH SALICYLICK ACID-INDUCED NPR1 CONDENSATES” (priority 2020, published 2023)

Experiments:
[1] = tested on: Psm ES4326/AvrRpt2-mediated cell death; assay: Cell death (conductivity/electrolyte leakage, trypan blue) after Psm ES4326/AvrRpt2 inoculation; type: in vivo, Arabidopsis thaliana; conditions: SA pretreatment at 0.5 and 1 mM; WT plants, not in npr1-2 mutant
Procedure: Chemical treatment, pathogen infection and cell death assays. […] At 2 days, the bacterial colonies were scored.
Trypan blue staining. Leaves of three-week-old Arabidopsis infected with Psm ES4326/AvrRpt2 were sampled at 1 dpi, boiled in 95% ethanol until completely bleached, followed by boiling for 3 min in a 1:1 mixture of 95% ethanol and staining solution (10 ml lactic acid, 10 ml glycerol, 10 g phenol and 10 mg trypan blue, dissolved in 10 ml DDW). The leaves were then de-stained in 2.5 g/ml chloral hydrate solution and transferred to 70% glycerol for subsequent imaging.

CUL3 = assay: Pull-down of Myc-CUL3 with GST-fused NPR1 or variants co-expressed in E. coli; type: binding, Arabidopsis thaliana
Text: Plasmid construction and E. coli-based ubiquitination: The coding sequences for all Arabidopsis genes were amplified from cDNA. Point mutations of AtNPR1 (AT1G64280) were generated using the QuikChange II site-directed mutagenesis kit (Agilent). Overlap PCR was used to generate the deletion/truncation mutations of AtCUL3A (AT1G26830) and AtNPR1. The WT and mutated coding sequences for all genes and gene fusions were sub-cloned into the pDONR207 gateway donor vector and confirmed by sequencing. The obtained entry vectors were recombined into either plant or E. coli destination vectors without or with an N- or C-terminal tag. For in planta expression, genes were recombined into the plant binary vectors pK7FWG2, pSITE-4NB and pLN462 to generate C-terminal eGFP, mCherry and HA fusions, respectively; into pK7WGF2, pEG201, pEG202, pEG203 and pEG204 to generate N-terminal eGFP, HA, FLAG, Myc and V5 fusions, respectively. […] For bimolecular fluorescence complementation (BiFC), entry vectors carrying the coding sequences of genes and their mutant variants were recombined into the pSITE-cEYFP-N1 binary vector for C-terminal fusion with the cYFP half (YC), or into the pSITE-nEYFP-C1 for N-terminal fusion with the nYFP half (YN). […]

Compound	Psm ES4326/AvrRpt2-mediated cell death [1]	interaction with CUL3 when co-expressed in E. coli (CUL3)
O=C(O)c1ccccc1O [SA, salicylic acid]	fully suppress	–
NPR1: wild-type Arabidopsis thaliana NPR1 protein, positive regulator of systemic acquired resistance	–	could be easily observed
